Measured values published in patent publication US20240279205A1, “NOVEL BENZIMIDAZOLE DERIVATIVE” (Carna Biosciences, Inc., priority 2020, published 2024).
Structures can show the parent of a compound that is named as a salt.

Tests used:
human STING (hSTING) = biological target: T1, human STING (hSTING) (Homo sapiens, UniProt Q86WV6); assay: Inhibition test of intracellular human STING (hSTING) pathway using SEAP reporter cells (HEK-Blue ISG), stimulation with Compound 3; assay type: cell-based; set-up: hSTING inhibitory activity: scale not given here; settings: Compound 3 10 nM stimulation, 21 hours
T1 construct: host or cells: HEK-Blue ISG cells (HEK293-derived SEAP reporter line)
How it was run: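 IC50 derived by regressing inhibition rate against log compound concentration (0.1 to 10 μM final, added 1 h before agonist), with 0% and 100% set by wells without and with 10 nM Compound 3. SEAP colour reaction read after 21 h stimulation of HEK-Blue ISG reporter cells.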

[1] = tested on: STING activation (IFN-β production in THP-1 cells); assay: Human IFN-β production inhibition test by cGAMP stimulation in THP-1 cells; assay type: cell-based; set-up: IFN-β bioinhibitory activity: scale not given here; settings: 2'3'-cGAMP transfection, 18 hours, IFN-β ELISA; for IC50: Homo sapiens, read-out: IFN-β bioinhibitory activity
How it was run: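 PMA-primed (100 nM, overnight) THP-1 cells pretreated 1 h with compound at 0.001 to 1 μM (0.1% DMSO), then transfected with 0.12 μg/well 2′3′-cGAMP and cultured 18 hours. Supernatant IFN-β measured by ELISA; IC50 by regression against log concentration, normalised to cGAMP-only (100%) and unstimulated (0%) controls.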

T1 sequence (Q86WV6 whole entry H232R): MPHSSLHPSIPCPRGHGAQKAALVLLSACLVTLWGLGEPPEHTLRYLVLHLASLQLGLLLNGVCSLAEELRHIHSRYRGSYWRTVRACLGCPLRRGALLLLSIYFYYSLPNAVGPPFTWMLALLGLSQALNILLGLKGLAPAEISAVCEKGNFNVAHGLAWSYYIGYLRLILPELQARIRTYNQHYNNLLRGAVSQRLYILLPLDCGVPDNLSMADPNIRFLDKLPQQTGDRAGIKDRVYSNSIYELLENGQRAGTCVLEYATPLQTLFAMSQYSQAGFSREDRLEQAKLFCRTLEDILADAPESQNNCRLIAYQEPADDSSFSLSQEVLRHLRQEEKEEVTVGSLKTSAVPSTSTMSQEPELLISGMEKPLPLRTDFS

hSTING inhibitory activity (human STING (hSTING)) | IC50 [1] [nM] | Structure (SMILES) | IFN-β bioinhibitory activity [1]
* * * | – | CN(C)n1c(Nc2c[nH]c3ccc(Cl)cc23)nc2cc(Cl)ccc21 [Embodiment 265, 5-Chloro-N2-(5-chloro-1H-indol-3-yl)-N1,N1-dimethyl-1H-benzo [d]imidazole-1,2-diamine] | * *
* * * | – | Cn1c(Nc2c[nH]c3cc(F)c(Cl)cc23)nc2cc(C(F)(F)F)ccc21 [Embodiment 262, N-(5-Chloro-6-fluoro-1H-indol-3-yl)-1-methyl-5-(trifluoromethyl)-1 H-benzo[d]imidazol-2-amine] | * *
* * | – | Fc1cccc2[nH]c(Nc3c[nH]c4ccc(Br)cc34)nc12 [Example 25, N-(5-bromo-1H-indol-3-yl)-4-fluoro-1H-benzo[d]imidazol-2-amine] | * *
* * * | – | Cn1c(Nc2c[nH]c3ccc(Cl)cc23)nc2ccc(Oc3ccc(F)cc3)cc21 [Embodiment 195, N-(5-Chloro-1H-indol-3-yl)-6-(4-fluorophenoxy)-1-methyl-1H-benzo[d]imidazol-2-amine] | * *
* * * | – | COCCn1c(Nc2c[nH]c3ccc(Cl)cc23)nc2cc(C(F)(F)F)ccc21 [Embodiment 222, N-(5-Chloro-1H-indol-3-yl)-1-(2-methoxyethyl)-5-(trifluoromethyl)-1H-benzo[d]imidazol-2-amine] | * *
* * * | – | OCCn1c(Nc2c[nH]c3ccc(Cl)cc23)nc2cc(C(F)(F)F)ccc21 [Embodiment 223, 2-{2-[(5-chloro-1H-indol-3-yl)amino]-5-(trifluoromethyl)-1H-benzo[d]imidazol-1-yl}ethanol] | * *
* * | – | Cn1c(Nc2c[nH]c3ccc(Cl)cc23)nc2cc(C(F)(F)F)c(Cl)cc21 [Embodiment 250, 6-Chloro-N-(5-chloro-1H-indol-3-yl)-1-methyl-5-(trifluoromethyl)-1H-benzo[d]imidazol-2-amine] | * *
* * * | 100 to 1000 | Fc1cc2nc(Nc3c[nH]c4ccc(Cl)nc34)[nH]c2cc1C(F)(F)F [Embodiment 160, N-(5-Chloro-1H-pyrrolo[3,2-b]pyridin-3-yl)-5-fluoro-6-(trifluoromethyl)-1H-benzo[d]imidazol-2-amine] | –
* * * | – | Brc1ccc2[nH]c(Nc3c[nH]c4ccc(Br)cc34)nc2c1 [Example 7, 5-bromo-N-(5-bromo-1H-indol-3-yl)-1H-benzo[d]imidazol-2-amine] | * *
* * * | – | CCCn1c(Nc2c[nH]c3ccc(Cl)cc23)nc2cc(C(F)(F)F)cc(F)c21 [Embodiment 238, N-(5-Chloro-1H-indol-3-yl)-7-fluoro-1-propyl-5-(trifluoromethyl)-1H-benzo[d]imidazol-2-amine] | * *
* * | – | FC(F)(F)c1ccc2[nH]c(Nc3c[nH]c4ccc(Br)nc34)nc2c1 [Example 31, N-(5-bromo-1H-pyrrolo[3,2-b]pyridin-3-yl)-5-(trifluoromethyl)-1H-benzo[d]imidazol-2-amine] | * * *
* * * | – | Cn1c(Nc2c[nH]c3ccc(C#N)cc23)nc2cc(C(F)(F)F)cc(F)c21 [Embodiment 257, 3-{ [7-fluoro-1-methyl-5-(trifluoro methyl)-1H-benzo[d]imidazol-2-yl]amino}-1H-indole-5-carbonitrile] | * *

The remaining lines, values behind:

Structure (SMILES) | hSTING inhibitory activity (human STING (hSTING)) | IC50 [1] [nM] | IFN-β bioinhibitory activity [1]
C[Si](C)(C)C#Cc1ccc2[nH]c(Nc3c[nH]c4ccc(Br)nc34)nc2c1 [Embodiment 59, N-(5-bromo-1H-pyrrolo[3,2-b]pyridin-3-yl)-5-[(trimethylsilyl)ethynyl]-1H-benzo[d]imidazol-2-amine] | * * * | – | * *
Clc1cc(Cl)c2nc(Nc3c[nH]c4ccc(Cl)nc34)[nH]c2c1 [Embodiment 84, 4,6-dichloro-N-(5-chloro-1H-pyrrolo[3,2-b]pyridin-3-yl)-1H-benzo[d]imidazol-2-amine] | * * | ≥ 1000 | –
CC(C)n1c(Nc2c[nH]c3ccc(Cl)nc23)nc2cc(Oc3ccccc3)ccc21 [Embodiment 116, N-(5-Chloro-1H-pyrrolo[3,2-b]pyridin-3-yl)-1-isopropyl-5-phenoxy-1H-benzo[d]imidazol-2-amine] | * * * | 100 to 1000 | –
COc1ccc2[nH]cc(Nc3nc4cc(Oc5ccccc5)ccc4[nH]3)c2n1 [Embodiment 36, N-(5-methoxy-1H-pyrrolo[3,2-b]pyridin-3-yl)-5-phenoxy-1H-benzo[d]imidazol-2-amine] | * * | – | * *
Clc1cc2nc(Nc3c[nH]c4ccc(Br)nc34)[nH]c2cc1Cl [Embodiment 88, N-(5-bromo-1H-pyrrolo[3,2-b]pyridin-3-yl)-5,6-dichloro-1H-benzo[d]imidazol-2-amine] | * * * | 100 to 1000 | –
Fc1ccc2[nH]c(Nc3c[nH]c4ccc(Cl)nc34)nc2c1F [Embodiment 82, N-(5-Chloro-1H-pyrrolo[3,2-b]pyridin-3-yl)-4,5-difluoro-1H-benzo[d]imidazol-2-amine] | * * | – | * *
Clc1ccc2[nH]cc(Nc3nc4cc(N5CCCCC5)ccc4[nH]3)c2n1 [Embodiment 151, N-(5-Chloro-1H-pyrrolo[3,2-b]pyridin-3-yl)-5-(piperidin-1-yl)-1H-benzo[d]imidazol-2-amine] | * * | 100 to 1000 | –
CN(C)c1cccc(Oc2ccc3[nH]c(Nc4c[nH]c5ccc(Br)cc45)nc3c2)c1 [Example 26, N-(5-bromo-1H-indol-3-yl)-5-[3-(dimethylamino)phenoxy]-1H-benzo[d]imidazol-2-amine] | * * | – | * *
Clc1ccc2[nH]cc(Nc3nc4c(N5CCCCC5)cccc4[nH]3)c2n1 [Embodiment 127, N-(5-Chloro-1H-pyrrolo[3,2-b]pyridin-3-yl)-4-(piperidin-1-yl)-1H-benzo[d]imidazol-2-amine] | * * | – | * *
Cc1ccc2[nH]c(Nc3c[nH]c4ccc(Cl)nc34)nc2c1 [Embodiment 123, N-(5-chloro-1H-pyrrolo[3,2-b]pyridin-3-yl)-5-methyl-1H-benzo[d] imidazol-2-amine] | * * * | 100 to 1000 | –
Clc1ccc2[nH]cc(Nc3nc4ccc(Oc5ccccc5)cc4n3C3CC3)c2n1 [Embodiment 119, N-(5-Chloro-1H-pyrrolo[3,2-b]pyridin-3-yl)-1-cyclopropyl-6-phenoxy-1H-benzo[d]imidazol-2-amine] | * * * | 100 to 1000 | –
Fc1ccc(Oc2ccc3nc(Nc4c[nH]c5ccc(Cl)nc45)n(C4CC4)c3c2)cc1 [Embodiment 187, N-(5-chloro-1H-pyrrolo[3,2-b]pyridin-3-yl)-1-cyclopropyl-6-(4-fluorophenoxy)-1H-benzo[d] imidazole-2-amine] | * * | 100 to 1000 | –
CC(C)Cc1ccc2[nH]c(Nc3c[nH]c4ccc(Cl)nc34)nc2c1 [Embodiment 131, N-(5-Chloro-1H-pyrrolo[3,2-b]pyridin-3-yl)-5-isobutyl-1H-benzo [d]imidazol-2-amine formate] | * * | – | * *
